In PubChem BioAssay (NCI):
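96-well plates; 48 h exposure; 5 concentrations. Endpoints by linear interpolation between flanking doses. Not reached: highest tested concentration assigned. At the TGI there is no net growth.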

Assays:
Assay in all cases: growth of human tumour cells (NCI), 48 h
CAKI-1 renal = tested on: CAKI-1 renal
LOX IMVI melanoma = tested on: LOX IMVI melanoma
NCI-H226 lung = tested on: NCI-H226 lung
DLD-1 colon = tested on: DLD-1 colon
OVCAR-8 ovarian = tested on: OVCAR-8 ovarian
A549 NSCLC = tested on: A549 NSCLC
786-0 renal = tested on: 786-0 renal
A498 renal = tested on: A498 renal
UACC-257 melanoma = tested on: UACC-257 melanoma
OVCAR-4 ovarian = tested on: OVCAR-4 ovarian
HCC-2998 colon = tested on: HCC-2998 colon
SK-MEL-2 melanoma = tested on: SK-MEL-2 melanoma
MALME-3M melanoma = tested on: MALME-3M melanoma
DMS 273 small cell lung = tested on: DMS 273 small cell lung
HCT-116 colon = tested on: HCT-116 colon
TK-10 renal = tested on: TK-10 renal
SN12C renal = tested on: SN12C renal
U251 CNS = tested on: U251 CNS
SR leukemia = tested on: SR leukemia
SF-268 CNS = tested on: SF-268 CNS
M19-MEL melanoma = tested on: M19-MEL melanoma
SW-620 colon = tested on: SW-620 colon
UO-31 renal = tested on: UO-31 renal
SNB-75 CNS = tested on: SNB-75 CNS
HT29 colon = tested on: HT29 colon
KM12 colon = tested on: KM12 colon
K-562 leukemia = tested on: K-562 leukemia
KM20L2 colon = tested on: KM20L2 colon
DMS 114 small cell lung = tested on: DMS 114 small cell lung
SNB-19 CNS = tested on: SNB-19 CNS
HCT-15 colon = tested on: HCT-15 colon
UACC-62 melanoma = tested on: UACC-62 melanoma
RXF 393 renal = tested on: RXF 393 renal
MOLT-4 leukemia = tested on: MOLT-4 leukemia
ACHN renal = tested on: ACHN renal
SK-OV-3 ovarian = tested on: SK-OV-3 ovarian
NCI-H522 lung = tested on: NCI-H522 lung
NCI-H460 lung = tested on: NCI-H460 lung
SF-539 CNS = tested on: SF-539 CNS
SNB-78 CNS = tested on: SNB-78 CNS
SF-295 CNS = tested on: SF-295 CNS
EKVX NSCLC = tested on: EKVX NSCLC
XF 498 CNS = tested on: XF 498 CNS
RPMI-8226 leukemia = tested on: RPMI-8226 leukemia
CCRF-CEM leukemia = tested on: CCRF-CEM leukemia
M14 melanoma = tested on: M14 melanoma
OVCAR-3 ovarian = tested on: OVCAR-3 ovarian
HOP-18 NSCLC = tested on: HOP-18 NSCLC
NCI-H23 lung = tested on: NCI-H23 lung
HL-60(TB) leukemia = tested on: HL-60(TB) leukemia
OVCAR-5 ovarian = tested on: OVCAR-5 ovarian
SK-MEL-5 melanoma = tested on: SK-MEL-5 melanoma
IGROV1 ovarian = tested on: IGROV1 ovarian
SK-MEL-28 melanoma = tested on: SK-MEL-28 melanoma
LXFL 529 NSCLC = tested on: LXFL 529 NSCLC
HOP-62 NSCLC = tested on: HOP-62 NSCLC
COLO 205 colon = tested on: COLO 205 colon
HOP-92 NSCLC = tested on: HOP-92 NSCLC

Question: For `Cc1cc(Br)ccc1NC1=CC(=O)C(=O)c2ccccc21`, which TGI (CAKI-1 renal) is on record?
Answer: 53.1 µM

Question: And the TGI (LOX IMVI melanoma)?
Answer: 48.5 µM

Question: What about the TGI (NCI-H226 lung) of the same compound?
Answer: > 100 µM

Question: And the TGI (DLD-1 colon)?
Answer: > 100 µM

Question: And the TGI (OVCAR-8 ovarian)?
Answer: > 100 µM

Question: What about the TGI (A549 NSCLC) of the same compound?
Answer: > 100 µM

Question: What about the TGI (786-0 renal) of the same compound?
Answer: > 100 µM

Question: And the TGI (A498 renal)?
Answer: > 100 µM

Question: What about the TGI (UACC-257 melanoma) of the same compound?
Answer: 39.4 µM

Question: And the TGI (OVCAR-4 ovarian)?
Answer: 31.1 µM

Question: What about the TGI (HCC-2998 colon) of the same compound?
Answer: > 100 µM

Question: And the TGI (SK-MEL-2 melanoma)?
Answer: > 100 µM

Question: And the TGI (MALME-3M melanoma)?
Answer: 53 µM

Question: And the TGI (DMS 273 small cell lung)?
Answer: > 100 µM

Question: What about the TGI (HCT-116 colon) of the same compound?
Answer: > 100 µM

Question: What about the TGI (TK-10 renal) of the same compound?
Answer: > 100 µM

Question: And the TGI (SN12C renal)?
Answer: > 100 µM

Question: And the TGI (U251 CNS)?
Answer: > 100 µM

Question: And the TGI (SR leukemia)?
Answer: > 100 µM

Question: What about the TGI (SF-268 CNS) of the same compound?
Answer: > 100 µM

Question: What about the TGI (M19-MEL melanoma) of the same compound?
Answer: 29.5 µM

Question: And the TGI (SW-620 colon)?
Answer: 89.1 µM

Question: What about the TGI (UO-31 renal) of the same compound?
Answer: > 100 µM

Question: What about the TGI (SNB-75 CNS) of the same compound?
Answer: > 100 µM

Question: What about the TGI (HT29 colon) of the same compound?
Answer: > 100 µM

Question: What about the TGI (KM12 colon) of the same compound?
Answer: > 100 µM

Question: What about the TGI (K-562 leukemia) of the same compound?
Answer: > 100 µM

Question: What about the TGI (KM20L2 colon) of the same compound?
Answer: > 100 µM

Question: And the TGI (DMS 114 small cell lung)?
Answer: 45 µM

Question: And the TGI (SNB-19 CNS)?
Answer: > 100 µM

Question: What about the TGI (HCT-15 colon) of the same compound?
Answer: > 100 µM

Question: What about the TGI (UACC-62 melanoma) of the same compound?
Answer: 36.1 µM

Question: And the TGI (RXF 393 renal)?
Answer: 69.6 µM

Question: And the TGI (MOLT-4 leukemia)?
Answer: > 100 µM

Question: And the TGI (ACHN renal)?
Answer: > 100 µM

Question: And the TGI (SK-OV-3 ovarian)?
Answer: > 100 µM

Question: And the TGI (NCI-H522 lung)?
Answer: > 100 µM

Question: And the TGI (NCI-H460 lung)?
Answer: 78.2 µM

Question: What about the TGI (SF-539 CNS) of the same compound?
Answer: > 100 µM

Question: And the TGI (SNB-78 CNS)?
Answer: > 100 µM

Question: What about the TGI (SF-295 CNS) of the same compound?
Answer: > 100 µM

Question: What about the TGI (EKVX NSCLC) of the same compound?
Answer: > 100 µM

Question: What about the TGI (XF 498 CNS) of the same compound?
Answer: 89.1 µM

Question: What about the TGI (RPMI-8226 leukemia) of the same compound?
Answer: > 100 µM

Question: And the TGI (CCRF-CEM leukemia)?
Answer: > 100 µM

Question: What about the TGI (M14 melanoma) of the same compound?
Answer: > 100 µM

Question: And the TGI (OVCAR-3 ovarian)?
Answer: > 100 µM

Question: And the TGI (HOP-18 NSCLC)?
Answer: 57.1 µM

Question: What about the TGI (NCI-H23 lung) of the same compound?
Answer: 32.4 µM

Question: What about the TGI (HL-60(TB) leukemia) of the same compound?
Answer: 38.5 µM

Question: And the TGI (OVCAR-5 ovarian)?
Answer: > 100 µM

Question: What about the TGI (SK-MEL-5 melanoma) of the same compound?
Answer: 36.8 µM

Question: What about the TGI (IGROV1 ovarian) of the same compound?
Answer: > 100 µM

Question: And the TGI (SK-MEL-28 melanoma)?
Answer: > 100 µM

Question: And the TGI (LXFL 529 NSCLC)?
Answer: > 100 µM

Question: And the TGI (HOP-62 NSCLC)?
Answer: > 100 µM

Question: What about the TGI (COLO 205 colon) of the same compound?
Answer: > 100 µM

Question: For `COc1ccc(-c2c3ccccc3c(-c3ccc(OC)cc3)c3ccccc23)cc1`, which TGI (CAKI-1 renal) is on record?
Answer: > 100 µM

Question: And the TGI (LOX IMVI melanoma)?
Answer: > 100 µM

Question: What about the TGI (NCI-H226 lung) of the same compound?
Answer: > 100 µM

Question: And the TGI (DLD-1 colon)?
Answer: > 100 µM

Question: What about the TGI (OVCAR-8 ovarian) of the same compound?
Answer: > 100 µM

Question: And the TGI (A549 NSCLC)?
Answer: > 100 µM

Question: What about the TGI (786-0 renal) of the same compound?
Answer: > 100 µM

Question: And the TGI (A498 renal)?
Answer: > 100 µM

Question: And the TGI (UACC-257 melanoma)?
Answer: > 100 µM

Question: And the TGI (HOP-92 NSCLC)?
Answer: > 100 µM

Question: What about the TGI (OVCAR-4 ovarian) of the same compound?
Answer: > 100 µM

Question: What about the TGI (HCC-2998 colon) of the same compound?
Answer: > 100 µM

Question: And the TGI (SK-MEL-2 melanoma)?
Answer: > 100 µM

Question: What about the TGI (MALME-3M melanoma) of the same compound?
Answer: > 100 µM

Question: And the TGI (DMS 273 small cell lung)?
Answer: > 100 µM

Question: What about the TGI (HCT-116 colon) of the same compound?
Answer: > 100 µM

Question: What about the TGI (TK-10 renal) of the same compound?
Answer: > 100 µM

Question: What about the TGI (SN12C renal) of the same compound?
Answer: > 100 µM

Question: And the TGI (U251 CNS)?
Answer: > 100 µM

Question: What about the TGI (SR leukemia) of the same compound?
Answer: > 100 µM

Question: What about the TGI (SF-268 CNS) of the same compound?
Answer: > 100 µM

Question: What about the TGI (M19-MEL melanoma) of the same compound?
Answer: > 100 µM

Question: What about the TGI (SW-620 colon) of the same compound?
Answer: > 100 µM

Question: What about the TGI (UO-31 renal) of the same compound?
Answer: > 100 µM

Question: What about the TGI (SNB-75 CNS) of the same compound?
Answer: 95.7 µM

Question: What about the TGI (HT29 colon) of the same compound?
Answer: > 100 µM

Question: And the TGI (KM12 colon)?
Answer: > 100 µM

Question: And the TGI (K-562 leukemia)?
Answer: > 100 µM

Question: And the TGI (KM20L2 colon)?
Answer: > 100 µM

Question: What about the TGI (DMS 114 small cell lung) of the same compound?
Answer: > 100 µM

Question: And the TGI (SNB-19 CNS)?
Answer: > 100 µM

Question: What about the TGI (HCT-15 colon) of the same compound?
Answer: > 100 µM

Question: What about the TGI (UACC-62 melanoma) of the same compound?
Answer: > 100 µM

Question: And the TGI (RXF 393 renal)?
Answer: > 100 µM

Question: What about the TGI (MOLT-4 leukemia) of the same compound?
Answer: > 100 µM

Question: And the TGI (ACHN renal)?
Answer: > 100 µM

Question: And the TGI (SK-OV-3 ovarian)?
Answer: > 100 µM

Question: And the TGI (NCI-H522 lung)?
Answer: > 100 µM

Question: And the TGI (NCI-H460 lung)?
Answer: > 100 µM

Question: And the TGI (SF-539 CNS)?
Answer: > 100 µM

Question: What about the TGI (SNB-78 CNS) of the same compound?
Answer: > 100 µM

Question: And the TGI (SF-295 CNS)?
Answer: > 100 µM

Question: And the TGI (EKVX NSCLC)?
Answer: > 100 µM

Question: And the TGI (XF 498 CNS)?
Answer: > 100 µM

Question: And the TGI (RPMI-8226 leukemia)?
Answer: > 100 µM

Question: What about the TGI (CCRF-CEM leukemia) of the same compound?
Answer: > 100 µM

Question: And the TGI (M14 melanoma)?
Answer: > 100 µM

Question: And the TGI (OVCAR-3 ovarian)?
Answer: > 100 µM

Question: And the TGI (HOP-18 NSCLC)?
Answer: > 100 µM

Question: What about the TGI (NCI-H23 lung) of the same compound?
Answer: > 100 µM

Question: And the TGI (HL-60(TB) leukemia)?
Answer: > 100 µM

Question: What about the TGI (OVCAR-5 ovarian) of the same compound?
Answer: > 100 µM

Question: And the TGI (SK-MEL-5 melanoma)?
Answer: > 100 µM

Question: What about the TGI (IGROV1 ovarian) of the same compound?
Answer: > 100 µM

Question: And the TGI (SK-MEL-28 melanoma)?
Answer: > 100 µM

Question: And the TGI (LXFL 529 NSCLC)?
Answer: > 100 µM

Question: What about the TGI (HOP-62 NSCLC) of the same compound?
Answer: > 100 µM

Question: And the TGI (COLO 205 colon)?
Answer: > 100 µM
